Data taken from ChEMBL document CHEMBL1151433, “National and regional assessment of antimicrobial resistance among community-acquired respiratory tract pathogens identified in a 2005-2006 U.S. Faropenem surveillance study” (2007).
Values after ≈ are worked out from the molar mass of the structure shown.

How the values were obtained:
Streptococcus pneumoniae [1] = experiment: Antibacterial activity against Streptococcus pneumoniae ATCC 49619 isolated from respiratory tract infected patients with 15 to 64 years of age after 20 to 24 hrs by broth microdilution method; assay type: functional
Streptococcus pneumoniae [2] = experiment: Antibacterial activity against penicillin-resistant Streptococcus pneumoniae ATCC 49619 isolated from respiratory tract infected patients after 20 to 24 hrs by broth microdilution method; assay type: functional
Streptococcus pneumoniae [3] = experiment: Antibacterial activity against Streptococcus pneumoniae ATCC 49619 isolated from respiratory tract infected patients assessed as susceptible isolates after 20 to 24 hrs by broth microdilution method; assay type: functional
Streptococcus pneumoniae [4] = experiment: Antibacterial activity against Streptococcus pneumoniae ATCC 49619 isolated from respiratory tract infected inpatients after 20 to 24 hrs by broth microdilution method; assay type: functional
Streptococcus pneumoniae [5] = experiment: Antibacterial activity against Streptococcus pneumoniae ATCC 49619 isolated from respiratory tract infected patients with 15 to 64 years of age assessed as resistant isolates after 20 to 24 hrs by broth microdilution method; assay type: functional
Moraxella catarrhalis = experiment: Antibacterial activity against Moraxella catarrhalis isolated from respiratory tract infected patients after 20 to 24 hrs by broth microdilution method; assay type: functional
Streptococcus pneumoniae [6] = experiment: Antibacterial activity against Streptococcus pneumoniae ATCC 49619 isolated from respiratory tract infected inpatients assessed as resistant isolates after 20 to 24 hrs by broth microdilution method; assay type: functional
Streptococcus pneumoniae [7] = experiment: Antibacterial activity against penicillin-intermediate Streptococcus pneumoniae ATCC 49619 isolated from respiratory tract infected patients after 20 to 24 hrs by broth microdilution method; assay type: functional
Haemophilus influenzae [8] = experiment: Antibacterial activity against beta lactamase-negative Haemophilus influenzae […] isolated from respiratory tract infected patients assessed as susceptible isolates after 20 to 24 hrs by broth microdilution method; assay type: functional
Haemophilus influenzae [9] = experiment: Antibacterial activity against beta lactamase-negative Haemophilus influenzae […] isolated from respiratory tract infected patients after 20 to 24 hrs by broth microdilution method; assay type: functional; details: ATCC 49247
Streptococcus pneumoniae [10] = experiment: Antibacterial activity against penicillin-intermediate Streptococcus pneumoniae ATCC 49619 isolated from respiratory tract infected patients assessed as resistant isolates after 20 to 24 hrs by broth microdilution method; assay type: functional
Streptococcus pneumoniae [11] = experiment: Antibacterial activity against Streptococcus pneumoniae ATCC 49619 isolated from respiratory tract infected patients more than 65 years of age after 20 to 24 hrs by broth microdilution method; assay type: functional
Streptococcus pneumoniae [12] = experiment: Antibacterial activity against Streptococcus pneumoniae ATCC 49619 isolated from respiratory tract infected patients with 6 to 14 years of age after 20 to 24 hrs by broth microdilution method; assay type: functional
Haemophilus influenzae [13] = experiment: Antibacterial activity against Haemophilus influenzae […] isolated from respiratory tract infected patients after 20 to 24 hrs by broth microdilution method; assay type: functional; details: ATCC 49247
Streptococcus pneumoniae [14] = experiment: Antibacterial activity against Streptococcus pneumoniae ATCC 49619 isolated from respiratory tract infected patients with 6 to 14 years of age assessed as resistant isolates after 20 to 24 hrs by broth microdilution method; assay type: functional
Streptococcus pneumoniae [15] = experiment: Antibacterial activity against penicillin-resistant Streptococcus pneumoniae ATCC 49619 isolated from respiratory tract infected patients assessed as resistant isolates after 20 to 24 hrs by broth microdilution method; assay type: functional
Streptococcus pneumoniae [16] = experiment: Antibacterial activity against Streptococcus pneumoniae ATCC 49619 isolated from respiratory tract infected outpatients after 20 to 24 hrs by broth microdilution method; assay type: functional
Streptococcus pneumoniae [17] = experiment: Antibacterial activity against Streptococcus pneumoniae ATCC 49619 isolated from respiratory tract infected patients within 2 years of age after 20 to 24 hrs by broth microdilution method; assay type: functional
Streptococcus pneumoniae [18] = experiment: Antibacterial activity against Streptococcus pneumoniae ATCC 49619 isolated from respiratory tract infected patients after 20 to 24 hrs by broth microdilution method; assay type: functional
Streptococcus pneumoniae [19] = experiment: Antibacterial activity against penicillin-intermediate Streptococcus pneumoniae ATCC 49619 isolated from respiratory tract infected patients assessed as susceptible isolates after 20 to 24 hrs by broth microdilution method; assay type: functional
Streptococcus pneumoniae [20] = experiment: Antibacterial activity against Streptococcus pneumoniae ATCC 49619 isolated from respiratory tract infected female patients after 20 to 24 hrs by broth microdilution method; assay type: functional
Haemophilus influenzae [21] = experiment: Antibacterial activity against beta lactamase-positive Haemophilus influenzae […] isolated from respiratory tract infected patients assessed as susceptible isolates after 20 to 24 hrs by broth microdilution method; assay type: functional, ATCC 49247
Streptococcus pneumoniae [22] = experiment: Antibacterial activity against penicillin-susceptible Streptococcus pneumoniae ATCC 49619 isolated from respiratory tract infected patients assessed as susceptible isolates after 20 to 24 hrs by broth microdilution method; assay type: functional
Streptococcus pneumoniae [23] = experiment: Antibacterial activity against penicillin-susceptible Streptococcus pneumoniae ATCC 49619 isolated from respiratory tract infected patients assessed as resistant isolates after 20 to 24 hrs by broth microdilution method; assay type: functional
Streptococcus pneumoniae [24] = experiment: Antibacterial activity against penicillin-susceptible Streptococcus pneumoniae ATCC 49619 isolated from respiratory tract infected patients after 20 to 24 hrs by broth microdilution method; assay type: functional
Streptococcus pneumoniae [25] = experiment: Antibacterial activity against Streptococcus pneumoniae ATCC 49619 isolated from respiratory tract infected patients with 3 to 5 years of age after 20 to 24 hrs by broth microdilution method; assay type: functional
Streptococcus pneumoniae [26] = experiment: Antibacterial activity against Streptococcus pneumoniae ATCC 49619 isolated from respiratory tract infected patients within 2 years of age assessed as resistant isolates after 20 to 24 hrs by broth microdilution method; assay type: functional
Streptococcus pneumoniae [27] = experiment: Antibacterial activity against Streptococcus pneumoniae ATCC 49619 isolated from respiratory tract infected male patients assessed as resistant isolates after 20 to 24 hrs by broth microdilution method; assay type: functional
Streptococcus pneumoniae [28] = experiment: Antibacterial activity against Streptococcus pneumoniae ATCC 49619 isolated from respiratory tract infected outpatients assessed as resistant isolates after 20 to 24 hrs by broth microdilution method; assay type: functional
Haemophilus influenzae [29] = experiment: Antibacterial activity against beta lactamase-positive Haemophilus influenzae […] isolated from respiratory tract infected patients after 20 to 24 hrs by broth microdilution method; assay type: functional; details: ATCC 49247
Streptococcus pneumoniae [30] = experiment: Antibacterial activity against Streptococcus pneumoniae ATCC 49619 isolated from respiratory tract infected patients assessed as resistant isolates after 20 to 24 hrs by broth microdilution method; assay type: functional
Streptococcus pneumoniae [31] = experiment: Antibacterial activity against Streptococcus pneumoniae ATCC 49619 isolated from respiratory tract infected female patients assessed as resistant isolates after 20 to 24 hrs by broth microdilution method; assay type: functional
Streptococcus pneumoniae [32] = experiment: Antibacterial activity against Streptococcus pneumoniae ATCC 49619 isolated from respiratory tract infected patients more than 65 years of age assessed as resistant isolates after 20 to 24 hrs by broth microdilution method; assay type: functional
Streptococcus pneumoniae [33] = experiment: Antibacterial activity against Streptococcus pneumoniae ATCC 49619 isolated from respiratory tract infected patients with 3 to 5 years of age assessed as resistant isolates after 20 to 24 hrs by broth microdilution method; assay type: functional
Streptococcus pneumoniae [34] = experiment: Antibacterial activity against Streptococcus pneumoniae ATCC 49619 isolated from respiratory tract infected male patients after 20 to 24 hrs by broth microdilution method; assay type: functional
Haemophilus influenzae [35] = experiment: Antibacterial activity against Haemophilus influenzae […] isolated from respiratory tract infected patients assessed as susceptible isolates after 20 to 24 hrs by broth microdilution method; assay type: functional, ATCC 49247
Streptococcus pneumoniae [36] = experiment: Antibacterial activity against penicillin-resistant Streptococcus pneumoniae ATCC 49619 isolated from respiratory tract infected patients assessed as susceptible isolates after 20 to 24 hrs by broth microdilution method; assay type: functional

CC[C@H]1OC(=O)[C@H](C)[C@@H](O[C@H]2C[C@@](C)(OC)[C@@H](O)[C@H](C)O2)[C@H](C)[C@@H](O[C@@H]2O[C@H](C)C[C@H](N(C)C)[C@H]2O)[C@](C)(O)C[C@@H](C)CN(C)[C@H](C)[C@@H](O)[C@]1(C)O [AZITHROMYCIN]
MIC90 (Streptococcus pneumoniae [1]): > 16 µg/mL
MIC50 (Streptococcus pneumoniae [2]): 32 µg/mL (≈ 42.7 µM)
MIC90 (Streptococcus pneumoniae [2]): > 16 µg/mL
Activity (Streptococcus pneumoniae [3]): 65.5%
MIC90 (Streptococcus pneumoniae [4]): > 16 µg/mL
Activity (Streptococcus pneumoniae [5]): 27.6%
MIC50 (Moraxella catarrhalis): ≤ 0.12 µg/mL
MIC90 (Moraxella catarrhalis): ≤ 0.12 µg/mL
Activity (Streptococcus pneumoniae [6]): 33%
MIC50 (Streptococcus pneumoniae [7]): 4 µg/mL (≈ 5.34 µM)
MIC90 (Streptococcus pneumoniae [7]): > 16 µg/mL
Activity (Haemophilus influenzae [8]): 98.9%
MIC50 (Haemophilus influenzae [9]): 1 µg/mL (≈ 1.34 µM)
MIC90 (Haemophilus influenzae [9]): 2 µg/mL (≈ 2.67 µM)
Activity (Streptococcus pneumoniae [10]): 64.5%
MIC90 (Streptococcus pneumoniae [11]): > 16 µg/mL
MIC90 (Streptococcus pneumoniae [12]): > 16 µg/mL
MIC50 (Haemophilus influenzae [13]): 1 µg/mL (≈ 1.34 µM)
MIC90 (Haemophilus influenzae [13]): 2 µg/mL (≈ 2.67 µM)
Activity (Streptococcus pneumoniae [14]): 36%
Activity (Streptococcus pneumoniae [15]): 80.6%
MIC90 (Streptococcus pneumoniae [16]): > 16 µg/mL
MIC90 (Streptococcus pneumoniae [17]): > 16 µg/mL
MIC50 (Streptococcus pneumoniae [18]): ≤ 0.12 µg/mL
MIC90 (Streptococcus pneumoniae [18]): > 16 µg/mL
Activity (Streptococcus pneumoniae [19]): 35.5%
MIC90 (Streptococcus pneumoniae [20]): > 16 µg/mL
Activity (Haemophilus influenzae [21]): 98.1%
Activity (Streptococcus pneumoniae [22]): 87.9%
Activity (Streptococcus pneumoniae [23]): 11.3%
MIC50 (Streptococcus pneumoniae [24]): ≤ 0.12 µg/mL
MIC90 (Streptococcus pneumoniae [24]): 4 µg/mL (≈ 5.34 µM)
MIC90 (Streptococcus pneumoniae [25]): > 16 µg/mL
Activity (Streptococcus pneumoniae [26]): 50.5%
Activity (Streptococcus pneumoniae [27]): 36%
Activity (Streptococcus pneumoniae [28]): 34.8%
MIC50 (Haemophilus influenzae [29]): 1 µg/mL (≈ 1.34 µM)
MIC90 (Haemophilus influenzae [29]): 2 µg/mL (≈ 2.67 µM)
Activity (Streptococcus pneumoniae [30]): 34%
Activity (Streptococcus pneumoniae [31]): 31.2%
Activity (Streptococcus pneumoniae [32]): 33.8%
Activity (Streptococcus pneumoniae [33]): 42.4%
MIC90 (Streptococcus pneumoniae [34]): > 16 µg/mL
Activity (Haemophilus influenzae [35]): 98.7%
Activity (Streptococcus pneumoniae [36]): 19.4%

C[C@H]1COc2c(N3CCN(C)CC3)c(F)cc3c(=O)c(C(=O)O)cn1c23.C[C@H]1COc2c(N3CCN(C)CC3)c(F)cc3c(=O)c(C(=O)O)cn1c23.O [LEVOFLOXACIN]
MIC90 (Streptococcus pneumoniae [1]): 1 µg/mL
MIC50 (Streptococcus pneumoniae [2]): 1 µg/mL
MIC90 (Streptococcus pneumoniae [2]): 1 µg/mL
Activity (Streptococcus pneumoniae [3]): 99.2%
MIC90 (Streptococcus pneumoniae [4]): 1 µg/mL
Activity (Streptococcus pneumoniae [5]): 0.4%
MIC50 (Moraxella catarrhalis): ≤ 0.06 µg/mL
MIC90 (Moraxella catarrhalis): ≤ 0.06 µg/mL
Activity (Streptococcus pneumoniae [6]): 0.1%
MIC50 (Streptococcus pneumoniae [7]): 1 µg/mL
MIC90 (Streptococcus pneumoniae [7]): 1 µg/mL
Activity (Haemophilus influenzae [8]): 99.7%
MIC50 (Haemophilus influenzae [9]): ≤ 0.06 µg/mL
MIC90 (Haemophilus influenzae [9]): ≤ 0.06 µg/mL
Activity (Streptococcus pneumoniae [10]): 0.9%
MIC90 (Streptococcus pneumoniae [11]): 1 µg/mL
MIC90 (Streptococcus pneumoniae [12]): 1 µg/mL
MIC50 (Haemophilus influenzae [13]): ≤ 0.06 µg/mL
MIC90 (Haemophilus influenzae [13]): ≤ 0.06 µg/mL
Activity (Streptococcus pneumoniae [14]): 0%
Activity (Streptococcus pneumoniae [15]): 1.6%
MIC90 (Streptococcus pneumoniae [16]): 1 µg/mL
MIC90 (Streptococcus pneumoniae [17]): 1 µg/mL
MIC50 (Streptococcus pneumoniae [18]): 1 µg/mL
MIC90 (Streptococcus pneumoniae [18]): 1 µg/mL
Activity (Streptococcus pneumoniae [19]): 98.8%
MIC90 (Streptococcus pneumoniae [20]): 1 µg/mL
Activity (Haemophilus influenzae [21]): 100%
Activity (Streptococcus pneumoniae [22]): 99.7%
Activity (Streptococcus pneumoniae [23]): 0.2%
MIC50 (Streptococcus pneumoniae [24]): 1 µg/mL
MIC90 (Streptococcus pneumoniae [24]): 1 µg/mL
MIC90 (Streptococcus pneumoniae [25]): 1 µg/mL
Activity (Streptococcus pneumoniae [26]): 0%
Activity (Streptococcus pneumoniae [27]): 0.8%
Activity (Streptococcus pneumoniae [28]): 0.9%
MIC50 (Haemophilus influenzae [29]): ≤ 0.06 µg/mL
MIC90 (Haemophilus influenzae [29]): ≤ 0.06 µg/mL
Activity (Streptococcus pneumoniae [30]): 0.6%
Activity (Streptococcus pneumoniae [31]): 0.3%
Activity (Streptococcus pneumoniae [32]): 1.4%
Activity (Streptococcus pneumoniae [33]): 0%
MIC90 (Streptococcus pneumoniae [34]): 1 µg/mL
Activity (Haemophilus influenzae [35]): 99.9%
Activity (Streptococcus pneumoniae [36]): 98%
